Measured values reported in paper PMC8402726 (Viruses, 2021).
Where two headings read alike, the source gives them in different places.

Legend:
in vitro [1] = conditions: human
SARS-CoV-2 RdRp = SARS-CoV-2 RdRp (Severe acute respiratory syndrome coronavirus 2, UniProt P0DTD1); assay: biochemical; type: biochemical; conditions: for Inhibition of SARS-CoV-2 RdRp at one concentration: in vitro RdRp assay, 100 µM
FIPV = assay: Viral titer reduction assay, FIPV in CRFK cells (plaque assay readout); type: cell-based, feline infectious peritonitis virus; conditions: for Inhibition of FIPV replication at single concentration: 50 µM, initial screening; for Inhibition of FIPV replication at single concentration / EC50 / Anti-FIPV activity lower compared with remdesivir: CRFK cells; for SI: CC50/EC50, CRFK cells; for SI / EC50: FIPV; for EC50: MOI 0.1, 48 h, 50% reduction in viral titers, read-out: EC50 (µM) (95% CI); for Anti-FIPV activity lower compared with remdesivir: relative to remdesivir EC50
in vitro [2] = conditions: African green monkey
SARS-CoV-2 [3] = assay: microbe, parasite or virus in culture; type: cell-based; conditions: for SI: CC50/EC50, CaCo-2 cells, SARS-CoV-2; for EC50: Severe acute respiratory syndrome coronavirus 2, CaCo-2 cells, MOI 0.1, 48 h, 50% reduction in viral titers, read-out: EC50 (µM) (95% CI)
SARS-CoV-2 [4] = assay: microbe, parasite or virus in culture; type: cell-based; conditions: for Inhibition of SARS-CoV-2 replication at single concentration: 50 µM, initial screening; for Inhibition of SARS-CoV-2 replication at single concentration / EC50: Vero cells; for SI: CC50/EC50, Vero cells, SARS-CoV-2; for EC50: Severe acute respiratory syndrome coronavirus 2, MOI 0.1, 48 h, 50% reduction in viral titers, read-out: EC50 (µM) (95% CI)
in vitro [5] = conditions: cat (Felis catus)
CaCo-2 cells = conditions: 50 µM
Vero cells = conditions: 50 µM
[6] = Cytotoxicity (Cell Counting Kit-8, WST-8) in CaCo-2 cells; conditions: human
[7] = Cytotoxicity (Cell Counting Kit-8, WST-8) in CRFK cells; conditions: cat (Felis catus)
[8] = Cytotoxicity (Cell Counting Kit-8, WST-8) in Vero cells; conditions: African green monkey
[9] = radioactive primer extension assay, n = 3, ± standard error of the mean, read-out: IC50

| SMILES | CC50 at 48 h (in vitro [1]) | Inhibition of SARS-CoV-2 RdRp at one concentration (SARS-CoV-2 RdRp) | Inhibition of FIPV replication at single concentration (FIPV) | SI (FIPV) | EC50 (FIPV) | Anti-FIPV activity lower compared with remdesivir (FIPV) | CC50 at 48 h (in vitro [2]) | SI (SARS-CoV-2 [3]) | EC50 (SARS-CoV-2 [3]) | Inhibition of SARS-CoV-2 replication at single concentration (SARS-CoV-2 [4]) | SI (SARS-CoV-2 [4]) | EC50 (SARS-CoV-2 [4]) | CC50 at 48 h (in vitro [5]) | IC50 (SARS-CoV-2 RdRp; [9]) | other results |
| --- | --- | --- | --- | --- | --- | --- | --- | --- | --- | --- | --- | --- | --- | --- | --- |
| O=C(N[C@@H](Cc1ccc(O)cc1)C(=O)O)c1cc(-c2ccccc2)c(=O)n2c1sc1ccc(OC3CCCCC3)cc12 [Compound 16, reference compound] | > 50 µM | inhibit | completely inhibit | >47.1 | 1.06 µM | approx. 5 fold | > 50 µM | >52.7 | 0.949 µM | completely inhibit | >76.5 | 0.653 µM | > 50 µM |  | IC50 (SARS-CoV-2 RdRp): 27.6 ± 2.1 µM; SI (FIPV; listed as HeE1-2Tyr (16)): exceeding 40; SI (SARS-CoV-2 [3]; listed as HeE1-2Tyr (16)): > 50; SI (SARS-CoV-2 [4]; listed as HeE1-2Tyr (16)): > 70 |
| O=C(N[C@@H](Cc1ccccc1)C(=O)O)c1cc(-c2ccccc2)c(=O)n2c1sc1ccc(OC3CCCCC3)cc12 [Compound 17] | > 50 µM | inhibit | completely inhibit |  | 0.999 µM | approx. 5 fold | > 50 µM | >50.2 | 0.996 µM | completely inhibit | >94.8 | 0.527 µM | > 50 µM | 41.2 ± 1.7 µM | Cell viability (CaCo-2 cells): approx. 125 % of untreated cells; Cell viability (Vero cells): approx. 125 % of untreated cells; viability at 48 h, 50 µM (in vitro [5]): ~60% |
| CCC(CC)COC(=O)[C@H](C)N[P@](=O)(OC[C@H]1O[C@@](C#N)(c2ccc3c(N)ncnn23)[C@H](O)[C@@H]1O)Oc1ccccc1 [Remdesivir] |  |  |  | >224.2 |  |  |  |  | < 0.3 µM |  | >55.5 | 0.901 µM |  |  | CC50 at 48 h [6]: > 50 µM; CC50 at 48 h [7]: > 50 µM; CC50 at 48 h [8]: > 50 µM |
| O=C(N[C@@H](Cc1ccc(O)cc1)C(=O)O)c1ccc(=O)n2c1sc1ccc(OC3CCCCC3)cc12 [Compound 18] | > 50 µM | inhibit | inactive | >1 |  |  | > 50 µM | >2 | > 25 µM | inactive | >1 | > 50 µM | > 50 µM | 85.5 ± 2 µM |  |
